One assay deals with MCF7. Put plainly: Antiproliferative activity against human MCF7 cells by MTT assay. The class given is functional, cell-based. A general note: Formazan colour is commonly taken as a measure of viable cells.
The next assay deals with JIMT-1. Put plainly: Antiproliferative activity against human JIMT1 cells by MTT assay. The class given is functional, cell-based.
In the next assay the test system is Caco-2. As to the kind of experiment: Antiproliferative activity against human Caco2 cells by MTT assay. The class given is functional, cell-based.
A further assay deals with U-87 MG. As to the kind of experiment: Antiproliferative activity against human U87 cells by MTT assay. The class given is functional, cell-based, U-87MG ATCC.
The test system of the next assay is HeLa. Put plainly: Antiproliferative activity against human HeLa cells by MTT assay. The class given is functional, cell-based.
In assay [1] the test system is MDA-MB-231. As to the kind of experiment: Antiproliferative activity against human MDA-MB-231 cells by MTT assay. The class given is functional, cell-based.
For assay [2], the system named is HGC-27. As to the kind of experiment: Antiproliferative activity against human HGC27 cells by MTT assay. The class given is functional, cell-based.
Assay [3] relates to HT-29. As to the kind of experiment: Antiproliferative activity against human HT-29 cells by MTT assay. The class given is functional, cell-based.
The subject of assay [4] is HGC-27. Put plainly: Antiproliferative activity against human HGC27 cells after 48 hrs by MTT assay. The class given is functional, cell-based. The following applies: HGC-27, 48 h.
Assay [5] has as its system HT-29. As to the kind of experiment: Antiproliferative activity against human HT-29 cells after 48 hrs by MTT assay. The class given is functional, cell-based. The note with it: HT-29, 48 h.
In assay [6] the test system is MDA-MB-231. As to the kind of experiment: Antiproliferative activity against human MDA-MB-231 cells after 48 hrs by MTT assay. The class given is functional, cell-based. The following applies: MDA-MB-231, 48 h.

Each structure is given as a SMILES string.

Drawing on ChEMBL document CHEMBL4316586, “A comprehensive review of salinomycin derivatives as potent anticancer and anti-CSCs agents” (Eur J Med Chem, 2019), this text covers IC50 for 24 compounds.

Regarding `CC[C@@H](C(=O)[C@@H](C)[C@@H](O)[C@H](C)[C@@H]1O[C@@H]([C@@H](CC)C(=O)O)CC[C@@H]1C)[C@H]1O[C@]2(C=C[C@@H](OC(=O)NC(C)(C)C)[C@]3(CC[C@@](C)([C@H]4CC[C@](O)(CC)[C@H](C)O4)O3)O2)[C@H](C)C[C@@H]1C`, the IC50 (as a rule, the concentration that inhibits the measured activity by half) in the assay with MCF7 turned out to be 420 nM; in the assay with JIMT-1, 380 nM.
In the case of `CC[C@@H](C(=O)[C@@H](C)[C@@H](O)[C@H](C)[C@@H]1O[C@@H]([C@@H](CC)C(=O)O)CC[C@@H]1C)[C@H]1O[C@]2(C=C[C@H](n3cc(-c4ccc(-c5ccccc5)cc4)nn3)[C@]3(CC[C@@](C)([C@H]4CC[C@](O)(CC)[C@H](C)O4)O3)O2)[C@H](C)C[C@@H]1C`, the 50% inhibitory concentration (IC50) in the assay on Caco-2 stood at 1290 nM; in the assay with U-87 MG it was 50000 nM; with HeLa it was 330 nM.
For `CC[C@@H](C(=O)[C@@H](C)[C@@H](O)[C@H](C)[C@@H]1O[C@@H]([C@@H](CC)C(=O)O)CC[C@@H]1C)[C@H]1O[C@]2(C=C[C@H](n3cc(COC(C(F)(F)F)(C(F)(F)F)C(F)(F)F)nn3)[C@]3(CC[C@@](C)([C@H]4CC[C@](O)(CC)[C@H](C)O4)O3)O2)[C@H](C)C[C@@H]1C`, in that order: 440 nM, 16600 nM and 290 nM.
Turning to `CCC(=O)O[C@H]1C=C[C@]2(O[C@H]([C@@H](CC)C(=O)[C@@H](C)[C@@H](O)[C@H](C)[C@@H]3O[C@@H]([C@@H](CC)C(=O)O)CC[C@@H]3C)[C@@H](C)C[C@H]2C)O[C@@]12CC[C@@](C)([C@H]1CC[C@](O)(CC)[C@H](C)O1)O2`, the figures for the 50% inhibitory concentration (IC50) in the assay on MDA-MB-231 [1], in the assay with HGC-27 [2] and in the assay on HT-29 [3] were 1890 nM, 890 nM and 840 nM, respectively.
For `CC[C@@H](C(=O)[C@@H](C)[C@@H](O)[C@H](C)[C@@H]1O[C@@H]([C@@H](CC)C(=O)O)CC[C@@H]1C)[C@H]1O[C@]2(C=C[C@H](OC(C)=O)[C@]3(CC[C@@](C)([C@H]4CC[C@](O)(CC)[C@H](C)O4)O3)O2)[C@H](C)C[C@@H]1C`, in that order: 1960 nM, 940 nM and 800 nM.
For `CC[C@@H](C(=O)[C@@H](C)[C@@H](O)[C@H](C)[C@@H]1O[C@@H]([C@@H](CC)C(=O)O)CC[C@@H]1C)[C@H]1O[C@]2(C=C[C@H](OC(=O)CC(C)C)[C@]3(CC[C@@](C)([C@H]4CC[C@](O)(CC)[C@H](C)O4)O3)O2)[C@H](C)C[C@@H]1C`, in that order: 2780 nM, 860 nM and 890 nM.
With `CC[C@@H](C(=O)[C@@H](C)[C@@H](O)[C@H](C)[C@@H]1O[C@@H]([C@@H](CC)C(=O)O)CC[C@@H]1C)[C@H]1O[C@]2(C=C[C@H](OC(=O)c3ccccc3)[C@]3(CC[C@@](C)([C@H]4CC[C@](O)(CC)[C@H](C)O4)O3)O2)[C@H](C)C[C@@H]1C`, the IC50 was found to be 790 nM with MDA-MB-231 [1], 240 nM in the assay on HGC-27 [2] and 180 nM in the assay on HT-29 [3].
`CC[C@@H](C(=O)[C@@H](C)[C@@H](O)[C@H](C)[C@@H]1O[C@@H]([C@@H](CC)C(=O)O)CC[C@@H]1C)[C@H]1O[C@@]2(C=C[C@@H](OCc3ccccc3)[C@]3(CC[C@@](C)([C@H]4CC[C@](O)(CC)[C@H](C)O4)O3)O2)[C@H](C)C[C@@H]1C`: the IC50 in the assay with HGC-27 [4], with HT-29 [5] and in the assay on MDA-MB-231 [6] was > 10000 nM each time.
On to `C=CC(=O)O[C@@H]1C=C[C@]2(O[C@H]([C@@H](CC)C(=O)[C@@H](C)[C@@H](O)[C@H](C)[C@@H]3O[C@@H]([C@@H](CC)C(=O)O)CC[C@@H]3C)[C@@H](C)C[C@H]2C)O[C@@]12CC[C@@](C)([C@H]1CC[C@](O)(CC)[C@H](C)O1)O2`, for which the figures for the IC50 in the assay with MCF7 and in the assay on JIMT-1 were 610 nM and 390 nM, respectively.
For `CC[C@@H](C(=O)[C@@H](C)[C@@H](O)[C@H](C)[C@@H]1O[C@@H]([C@@H](CC)C(=O)O)CC[C@@H]1C)[C@H]1O[C@]2(C=C[C@@H](OC(=O)C(C)C)[C@]3(CC[C@@](C)([C@H]4CC[C@](O)(CC)[C@H](C)O4)O3)O2)[C@H](C)C[C@@H]1C`, in that order: 190 nM and 150 nM.
The matching figures for `CC[C@@H](C(=O)[C@@H](C)[C@@H](O)[C@H](C)[C@@H]1O[C@@H]([C@@H](CC)C(=O)O)CC[C@@H]1C)[C@H]1O[C@]2(C=C[C@@H](OC(=O)C(C)(C)C)[C@]3(CC[C@@](C)([C@H]4CC[C@](O)(CC)[C@H](C)O4)O3)O2)[C@H](C)C[C@@H]1C`: 170 nM and 230 nM.
For `CC[C@@H](C(=O)[C@@H](C)[C@@H](O)[C@H](C)[C@@H]1O[C@@H]([C@@H](CC)C(=O)O)CC[C@@H]1C)[C@H]1O[C@@]2(C=C[C@@H](OCc3ccccc3)[C@@]3(CC[C@@](C)([C@H]4CC[C@](O)(CC)[C@H](C)O4)O3)O2)[C@H](C)C[C@@H]1C`, the half-maximal inhibitory concentration (IC50) was 4140 nM in the assay with HGC-27 [4], 2800 nM with HT-29 [5] and 6560 nM with MDA-MB-231 [6].
As to `CC[C@@H](C(=O)[C@@H](C)[C@@H](O)[C@H](C)[C@@H]1O[C@@H]([C@@H](CC)C(=O)O)CC[C@@H]1C)[C@H]1O[C@]2(C=C[C@@H](OC(=O)c3ccccc3)[C@]3(CC[C@@](C)([C@H]4CC[C@](O)(CC)[C@H](C)O4)O3)O2)[C@H](C)C[C@@H]1C`, the IC50 with MCF7 was 200 nM; in the assay with JIMT-1 it was 360 nM.
The matching figures for `CC[C@@H](C(=O)[C@@H](C)[C@@H](O)[C@H](C)[C@@H]1O[C@@H]([C@@H](CC)C(=O)O)CC[C@@H]1C)[C@H]1O[C@]2(C=C[C@@H](OC(=O)c3ccco3)[C@]3(CC[C@@](C)([C@H]4CC[C@](O)(CC)[C@H](C)O4)O3)O2)[C@H](C)C[C@@H]1C`: 130 nM and 160 nM.
`CC[C@@H](C(=O)[C@@H](C)[C@@H](O)[C@H](C)[C@@H]1O[C@@H]([C@@H](CC)C(=O)O)CC[C@@H]1C)[C@H]1O[C@]2(C=C[C@H](n3cc(-c4ccc(C(C)(C)C)cc4)nn3)[C@]3(CC[C@@](C)([C@H]4CC[C@](O)(CC)[C@H](C)O4)O3)O2)[C@H](C)C[C@@H]1C`: the IC50 worked out at 1820 nM in the assay with Caco-2, 18900 nM with U-87 MG and 2010 nM in the assay with HeLa.
In the case of `CC[C@@H](C(=O)[C@@H](C)[C@@H](O)[C@H](C)[C@@H]1O[C@@H]([C@@H](CC)C(=O)O)CC[C@@H]1C)[C@H]1O[C@@]2(C=C[C@@H](O)[C@]3(CC[C@@](C)([C@H]4CC[C@](O)(CC)[C@H](C)O4)O3)O2)[C@H](C)C[C@@H]1C`, the concentration for half-maximal inhibition (IC50) in the assay on HGC-27 [4], in the assay with HT-29 [5] and with MDA-MB-231 [6] was > 10000 nM throughout.
In the case of `CC[C@@H](C(=O)[C@@H](C)[C@@H](O)[C@H](C)[C@@H]1O[C@@H]([C@@H](CC)C(=O)O)CC[C@@H]1C)[C@H]1O[C@]2(C=C[C@@H](OC(=O)C3CCCCC3)[C@]3(CC[C@@](C)([C@H]4CC[C@](O)(CC)[C@H](C)O4)O3)O2)[C@H](C)C[C@@H]1C`, the values for the half-inhibitory concentration (IC50) in the assay on MCF7 and with JIMT-1 were 240 nM and 300 nM, respectively.
For `CCOC(=O)O[C@@H]1C=C[C@]2(O[C@H]([C@@H](CC)C(=O)[C@@H](C)[C@@H](O)[C@H](C)[C@@H]3O[C@@H]([C@@H](CC)C(=O)O)CC[C@@H]3C)[C@@H](C)C[C@H]2C)O[C@@]12CC[C@@](C)([C@H]1CC[C@](O)(CC)[C@H](C)O1)O2`, in that order: 130 nM and 90 nM.
With `CC[C@@H](C(=O)[C@@H](C)[C@@H](O)[C@H](C)[C@@H]1O[C@@H]([C@@H](CC)C(=O)O)CC[C@@H]1C)[C@H]1O[C@]2(C=C[C@@H](OC(=O)c3cnco3)[C@]3(CC[C@@](C)([C@H]4CC[C@](O)(CC)[C@H](C)O4)O3)O2)[C@H](C)C[C@@H]1C`, the results for the 50% inhibitory concentration (IC50) with MCF7 and in the assay with JIMT-1 were 230 nM and 240 nM, respectively.
For `CCNC(=O)O[C@@H]1C=C[C@]2(O[C@H]([C@@H](CC)C(=O)[C@@H](C)[C@@H](O)[C@H](C)[C@@H]3O[C@@H]([C@@H](CC)C(=O)O)CC[C@@H]3C)[C@@H](C)C[C@H]2C)O[C@@]12CC[C@@](C)([C@H]1CC[C@](O)(CC)[C@H](C)O1)O2`, in that order: 160 nM and 260 nM.
Consider `CC[C@@H](C(=O)[C@@H](C)[C@@H](O)[C@H](C)[C@@H]1O[C@@H]([C@@H](CC)C(=O)O)CC[C@@H]1C)[C@H]1O[C@]2(C=C[C@H](n3cc(-c4ccccn4)nn3)[C@]3(CC[C@@](C)([C@H]4CC[C@](O)(CC)[C@H](C)O4)O3)O2)[C@H](C)C[C@@H]1C`, for which the IC50 in the assay with Caco-2 is 3310 nM; in the assay with U-87 MG, 15700 nM; with HeLa it was 610 nM.
As for `CC[C@@H](C(=O)[C@@H](C)[C@@H](O)[C@H](C)[C@@H]1O[C@@H]([C@@H](CC)C(=O)O)CC[C@@H]1C)[C@H]1O[C@]2(C=C[C@@H](OC(C)=O)[C@]3(CC[C@@](C)([C@H]4CC[C@](O)(CC)[C@H](C)O4)O3)O2)[C@H](C)C[C@@H]1C`, the IC50 with MCF7 and in the assay on JIMT-1 was 110 nM in each case.
With `CC[C@@H](C(=O)[C@@H](C)[C@@H](O)[C@H](C)[C@@H]1O[C@@H]([C@@H](CC)C(=O)O)CC[C@@H]1C)[C@H]1O[C@]2(C=C[C@@H](OC(=O)Oc3ccccc3)[C@]3(CC[C@@](C)([C@H]4CC[C@](O)(CC)[C@H](C)O4)O3)O2)[C@H](C)C[C@@H]1C`, the figures for the IC50 in the assay on MCF7 and in the assay with JIMT-1 were 240 nM and 200 nM, respectively.
Regarding `CC[C@@H](C(=O)[C@@H](C)[C@@H](O)[C@H](C)[C@@H]1O[C@@H]([C@@H](CC)C(=O)O)CC[C@@H]1C)[C@H]1O[C@]2(C=C[C@H](OC(=O)c3ccc(F)cc3)[C@]3(CC[C@@](C)([C@H]4CC[C@](O)(CC)[C@H](C)O4)O3)O2)[C@H](C)C[C@@H]1C`, the IC50 with MDA-MB-231 [1] is 790 nM; with HGC-27 [2], 280 nM; in the assay on HT-29 [3] it was 160 nM.
